Results reported in publication PMC6318325, “The conformational changes coupling ATP hydrolysis and translocation in a bacterial DnaB helicase” (Nature Communications, 2019).

How the values were obtained:
[1] = target: T1, HpDnaB (DnaB) (Helicobacter pylori, UniProt O25916); experiment: solid-state […] CP and […] MAS NMR of sedimented complex; settings: no DNA, NMR at 278 K, nucleotide-binding domain
T1 construct: full length (488 residues), no tag stated (heparin and anion exchange purification); pACYC-duet1, E. coli BL21 Star (DE3); 13C-15N labelled for NMR; hexameric assembly, dodecamer named in anisotropy assay; nucleotide site at interface of two monomers
T1 sequence (O25916 1-488): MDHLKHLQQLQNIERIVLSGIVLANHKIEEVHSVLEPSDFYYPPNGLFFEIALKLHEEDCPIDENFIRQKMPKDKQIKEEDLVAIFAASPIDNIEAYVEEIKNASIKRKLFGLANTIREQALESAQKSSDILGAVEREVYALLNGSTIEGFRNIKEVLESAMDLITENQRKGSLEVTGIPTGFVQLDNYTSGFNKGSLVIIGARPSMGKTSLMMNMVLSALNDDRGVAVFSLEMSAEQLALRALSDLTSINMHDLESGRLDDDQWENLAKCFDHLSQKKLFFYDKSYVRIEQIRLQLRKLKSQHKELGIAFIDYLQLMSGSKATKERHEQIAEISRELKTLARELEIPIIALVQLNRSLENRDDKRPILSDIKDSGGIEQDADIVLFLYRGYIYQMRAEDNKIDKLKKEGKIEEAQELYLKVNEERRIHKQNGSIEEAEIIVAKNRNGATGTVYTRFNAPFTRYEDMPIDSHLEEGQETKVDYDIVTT

[2] = target: T1, HpDnaB (DnaB); experiment: […] solid-state NMR, ATP turned over to ADP during sample preparation; assay type: biochemical; settings: 5 mM MgCl2, 5 mM ATP, pH 7.5, 130 mM NaCl, 4 °C, no DNA
[3] = target: T2, HpDnaB replicative helicase (Helicobacter pylori, UniProt O25916 1-488); experiment: fluorescence anisotropy; 0.5 mM AMP-PCP, 5 mM MgCl2; Hill fit; Supplementary Table 4 fit instead prints 47.43 +/- 2.648, h 0.7349 (column order inferred); Anisotropy: 20 mM Hepes pH 7.5, 5 mM MgCl2, 50 mM potassium acetate, 5% glycerol, 0.2 mg/ml BSA, 0.5 mM nucleotide, 1 nM DNA, 0-8 uM DnaB (dodecamer), temperature not stated; NMR: protein buffer 2.5 mM sodium phosphate pH 7.5, 130 mM NaCl, 278 K; settings: protein: recombinant; chain copies: 12; label: 5'-FAM; single strand
T2 sequence: T1 sequence (O25916 1-488)

[4] = target: T2, HpDnaB replicative helicase; experiment: fluorescence anisotropy; 0.5 mM ADP:AlF4-, 5 mM MgCl2; Hill fit h 1.160; Anisotropy: 20 mM Hepes pH 7.5, 5 mM MgCl2, 50 mM potassium acetate, 5% glycerol, 0.2 mg/ml BSA, 0.5 mM nucleotide, 1 nM DNA, 0-8 uM DnaB (dodecamer), temperature not stated; NMR: protein buffer 2.5 mM sodium phosphate pH 7.5, 130 mM NaCl, 278 K; settings: protein: recombinant; chain copies: 12; label: 5'-FAM; single strand
[5] = target: T2, HpDnaB replicative helicase; experiment: fluorescence anisotropy; 0.5 mM ATP, 5 mM MgCl2; Hill fit h 0.6509; Anisotropy: 20 mM Hepes pH 7.5, 5 mM MgCl2, 50 mM potassium acetate, 5% glycerol, 0.2 mg/ml BSA, 0.5 mM nucleotide, 1 nM DNA, 0-8 uM DnaB (dodecamer), temperature not stated; NMR: protein buffer 2.5 mM sodium phosphate pH 7.5, 130 mM NaCl, 278 K; settings: protein: recombinant; chain copies: 12; label: 5'-FAM; single strand

Nc1ncnc2c1ncn2[C@@H]1O[C@H](COP(=O)(O)OP(=O)(O)O)[C@@H](O)[C@H]1O [ADP]
solid-state 31P CP and 13C MAS NMR of sedimented complex ([1]; 5 mM MgCl2, 5 mM ADP, pH 7.5, 130 mM NaCl): The nucleotides are thus indeed bound to the protein.

Nc1ncnc2c1ncn2[C@@H]1O[C@H](COP(=O)(O)OP(=O)(O)CP(=O)(O)O)[C@@H](O)[C@H]1O [AMP-PCP]
solid-state 31P CP and 13C MAS NMR of sedimented complex ([1]; 5 mM MgCl2, pH 7.5, 130 mM NaCl, 15 mM nucleotide): The nucleotides are thus indeed bound to the protein.

Nc1ncnc2c1ncn2[C@@H]1O[C@H](COP(=O)(O)OP(=O)(O)OP(=O)(O)O)[C@@H](O)[C@H]1O [ATP]
31P solid-state NMR, ATP turned over to ADP during sample preparation [2]: Addition of ATP to the apo form yields the ADP spectrum, implying that ATP is hydrolyzed

TTTTTTTTTTTTTTTTTTTT (ssDNA) [5'-FAM-(dT)20]
Kd [3]: 58 ± 14 nM | Kd [4]: 0.83 ± 0.03 nM | Kd [5]: 14 ± 3 nM
